Assay results reported in PubChem BioAssay (NCI).
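Dose response: 5 concentrations. Exposure: 48 h. Format: 96-well plates. Endpoint: linear interpolation; highest concentration if not reached. TGI marks complete inhibition of growth.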

Tests used:
Experiment in all cases: NCI anticancer screen, dose series, 48 h
COLO 205 colon = test system: COLO 205 colon
MCF7 breast = test system: MCF7 breast
MALME-3M melanoma = test system: MALME-3M melanoma
BT-549 breast = test system: BT-549 breast
M14 melanoma = test system: M14 melanoma
OVCAR-4 ovarian = test system: OVCAR-4 ovarian
NCI-H522 lung = test system: NCI-H522 lung
UACC-257 melanoma = test system: UACC-257 melanoma
RPMI-8226 leukemia = test system: RPMI-8226 leukemia
A498 renal = test system: A498 renal
SNB-19 CNS = test system: SNB-19 CNS
LOX IMVI melanoma = test system: LOX IMVI melanoma
OVCAR-3 ovarian = test system: OVCAR-3 ovarian
CAKI-1 renal = test system: CAKI-1 renal

| Compound | TGI (COLO 205 colon) [µM] | TGI (MCF7 breast) [µM] | TGI (MALME-3M melanoma) [µM] | TGI (BT-549 breast) [µM] | TGI (M14 melanoma) [µM] | TGI (OVCAR-4 ovarian) [µM] | TGI (NCI-H522 lung) [µM] | TGI (UACC-257 melanoma) [µM] | TGI (RPMI-8226 leukemia) [µM] | TGI (A498 renal) [µM] | TGI (SNB-19 CNS) [µM] | TGI (LOX IMVI melanoma) [µM] | TGI (OVCAR-3 ovarian) [µM] | TGI (CAKI-1 renal) [µM] |
| --- | --- | --- | --- | --- | --- | --- | --- | --- | --- | --- | --- | --- | --- | --- |
| O=C1N(CN2CCOCC2)CN(CN2CCOCC2)C(=O)N1Cc1ccccc1 | 36.1 | 82.6 | 29.5 | 57 | 33.3 | > 100 | 29 | 48.6 | 60.3 | > 100 | > 100 | 33 | 59.7 | 92.8 |
| O=c1[nH]cc(N(CCCl)CCCl)c(=O)[nH]1 | 157 | 205 | 106 | 158 | 89.9 | 199 | 60.9 | 159 | 284 | 191 | 400 | 165 | 223 | 56.7 |
| COc1ccc2c[n+](C)c3c4cc(OC)c(OC)cc4ccc3c2c1 | 5.49 | > 100 | 42 | 10.8 | 32.1 | 26.4 | 7.5 | 57.6 | 16.1 | > 100 | 12 | 17.2 | 17.7 | > 100 |
| COc1ccc(C(=O)Cn2c(C(C)=O)nc3ccccc32)cc1 | 52.4 | > 100 | > 100 | > 100 | > 100 | > 100 | > 100 | > 100 | > 100 | > 100 | > 100 | > 46.4 | > 100 | > 100 |
| COCC(=O)OC1CCn2c1nc1c2C(=O)C(C)=C(NC(C)=O)C1=N (centres undefined) | 37.3 | 3.52 | 2.7 | 3.76 | 15 | 4.89 | 21.5 | 8.23 | 6.79 | 32.9 | 38.1 | 6.04 | 5.85 | 23.2 |
| O=C1c2ccccc2C(=O)c2c1oc(=O)c1ccccc21 | 24.7 | 13.6 | 5.79 | 9.2 | 16.1 | 3.56 | 9.73 | 6.75 | 19.2 | > 25 | > 25 | 9.9 | 3.61 | 15.5 |
| O=C1OC2c3ccccc3C(=O)C2(c2ccccc2)N1c1ccccc1 (centres undefined) | > 200 | > 200 | > 200 | > 200 | > 200 | > 200 | > 200 | > 200 | > 200 | > 200 | > 200 | > 200 | > 200 | > 200 |
| NC1=NN(c2ccccc2)C2(c3ccncc3C(=O)O)C1C(N)=NN2c1ccccc1 (centres undefined) | > 100 | > 100 | > 100 | > 100 | > 100 | > 100 | > 100 | > 100 | > 100 | > 100 | > 100 | > 100 | > 100 | > 100 |
| O=NNc1cnccn1 | > 1250 | 1240 | > 1250 | > 1250 | > 1250 | > 1250 | > 1250 | > 1250 | > 1250 | > 1250 | > 1250 | > 1250 | > 1250 | > 1250 |
| CC(=O)N1C(C(=O)NNc2ccccc2)CSC1c1ccccc1 (centres undefined) | > 100 | > 100 | > 100 | > 100 | > 100 | > 100 | > 100 | > 100 | > 100 | > 100 | > 100 | > 100 | > 100 | > 100 |
| CC(C)CCNC(=O)c1ccc(CNC(=O)/C=C/c2csc(-c3ccccc3)n2)cc1 | > 100 | > 100 | > 100 | > 100 | > 100 | > 100 | > 100 | > 100 | > 100 | > 100 | 56.6 | > 100 | > 100 | > 100 |
